Laboratory results reported in PMC2857669 (Biochemistry, 2009).
≈ marks a conversion by molar mass, not a printed value. Read-outs that look alike come from different tables or passages of the source.

Assays:
ferrous heme-hHO-1 [1] = target: T1, ferrous heme-hHO-1 (Homo sapiens, UniProt P09601); conditions: cited from earlier work
T1 sequence (P09601 1-265 limits assumed): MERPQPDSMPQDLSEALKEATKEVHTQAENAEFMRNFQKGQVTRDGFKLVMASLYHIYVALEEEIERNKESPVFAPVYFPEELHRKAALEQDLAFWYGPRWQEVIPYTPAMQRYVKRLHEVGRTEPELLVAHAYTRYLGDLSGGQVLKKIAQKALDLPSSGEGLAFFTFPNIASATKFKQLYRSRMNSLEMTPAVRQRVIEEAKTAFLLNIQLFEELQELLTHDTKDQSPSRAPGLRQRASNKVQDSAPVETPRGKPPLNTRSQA

verdoheme-HO-1 complex = conditions: in the presence of reductant; cited from earlier work
hHO-1 = target: T2, hHO-1 (Homo sapiens, UniProt P09601); experiment: biochemical
T2 sequence (P09601 1-265 limits assumed): T1 sequence (P09601 1-265 limits assumed)

HO [2] = conditions: cited from earlier work
HO [3] = conditions: cited from earlier work; remark: listed apart in the source
CaHmx1 = CaHmx1 (Candida albicans, UniProt Q5AB97); assay type: binding; conditions: read-out: estimate of the KD; ferric CaHmx1; no full saturation up to 7 mM
ferrous heme-hHO-1 [4] = target: T1, ferrous heme-hHO-1; experiment: biochemical; assay type: binding
ferric verdoheme-hHO-1 = target: T3, ferric verdoheme-hHO-1 (Homo sapiens, UniProt P09601); experiment: biochemical; assay type: binding
T3 sequence (P09601 1-265 limits assumed): T1 sequence (P09601 1-265 limits assumed)

hHO-2 = target: T4, hHO-2 (Homo sapiens, UniProt P30519); experiment: biochemical
T4 sequence (P30519 2-295 limits assumed): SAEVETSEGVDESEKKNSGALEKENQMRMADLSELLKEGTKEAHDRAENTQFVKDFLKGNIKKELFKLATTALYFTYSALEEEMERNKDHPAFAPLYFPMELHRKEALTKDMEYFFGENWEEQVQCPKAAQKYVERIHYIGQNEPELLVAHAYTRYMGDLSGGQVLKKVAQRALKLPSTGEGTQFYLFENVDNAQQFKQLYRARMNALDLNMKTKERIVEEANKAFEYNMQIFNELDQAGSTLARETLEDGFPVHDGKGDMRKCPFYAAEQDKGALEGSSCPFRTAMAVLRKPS

heme-hHO-1 [5] = target: T5, heme-hHO-1 (Homo sapiens, UniProt P09601); assay type: binding; conditions: ferric heme-hHO-1
T5 sequence (P09601 1-265 limits assumed): T1 sequence (P09601 1-265 limits assumed)

[6] = Solubility in aqueous solutions; assay type: physicochemical
heme-hHO-1 [7] = target: T5, heme-hHO-1; experiment: biochemical

[C-]#[O+] [CO, carbon monoxide]
Kd (ferrous heme-hHO-1 [1]): 0.01 µM
association rate constant (ferrous heme-hHO-1 [1]): 900000 M⁻¹ s⁻¹
dissociation rate (ferrous heme-hHO-1 [1]): 0.009 s⁻¹

O=O [O2]
Kd (ferrous heme-hHO-1 [1]): 0.04 µM
association rate constant (ferrous heme-hHO-1 [1]): 6.9e+06 M⁻¹ s⁻¹
dissociation rate (ferrous heme-hHO-1 [1]): 0.25 s⁻¹
estimated rate constant of reaction with O2 (verdoheme-HO-1 complex): 250 M⁻¹ s⁻¹

iron protoporphyrin IX [heme]
Km (hHO-1; read-out: Km for heme, global fit to uncompetitive inhibition): 0.005 ± 0.001 mM
Kd (HO [2]): 0.8 ± 0.2 µM

C=Cc1c2[n-]c(c1C)/C=c1\[n-]/c(c(C)c1C=C)=C\c1[n-]c(c(CCC(=O)O)c1C)C=c1[n-]/c(c(C)c1CCC(=O)O)=C\2.[Sn+4] [Sn-heme]
Ki (HO [3]): 0.011 µM

[C-]#[N+]C(C)C [isopropyl isocyanide]
IC50 (hHO-1): 0.72 ± 0.08 µM
Kd (CaHmx1): 3800 µM
association rate constant (kon) (ferrous heme-hHO-1 [4]; ferrous heme-hHO-1, 20 °C, anaerobic): 1.3e+06 M⁻¹ s⁻¹
Kd (ferric verdoheme-hHO-1; ferric verdoheme-hHO-1 generated with one equivalent H2O2): 440 ± 75 µM
IC50 (hHO-2): 1.17 ± 0.06 µM

[C-]#[N+]CCCC [n-butyl isocyanide]
fold higher affinity than isopropyl isocyanide (heme-hHO-1 [5]): 9 fold
IC50 (hHO-1): 0.25 ± 0.01 µM
Kd (ferrous heme-hHO-1 [4]): 0.12 µM
koff (ferrous heme-hHO-1 [4]; read-out: dissociation rate (koff)): 0.52 s⁻¹
solubility [6]: 6 mM (≈ 499 µg/mL)
Kd (ferric verdoheme-hHO-1): 17 ± 3 µM
fold higher affinity than ferric heme-hHO-1 (ferric verdoheme-hHO-1; ferric verdoheme-hHO-1 versus ferric heme-hHO-1): 2 fold
IC50 (heme-hHO-1 [7]): ~45 µM
IC50 (hHO-2): 0.34 ± 0.02 µM
